The text below walks through data of ChEMBL document CHEMBL4406843, “β-Amino acid derivatives as mitochondrial complex III inhibitors of L. donovani: A promising chemotype targeting visceral leishmaniasis” (Eur J Med Chem, 2019).

Data set [1] can be described thus: Cytotoxicity against African green monkey Vero cells assessed as cell viability at 25 uM by MTT assay relative to control. The settings on record: chlorocebus sabaeus, read-out: Activity. Format: cell-based.
A short description of data set [2]: Cytotoxicity against African green monkey Vero cells assessed as cell viability at 50 uM by MTT assay relative to control. Format: cell-based. The settings on record: chlorocebus sabaeus, read-out: Activity.
A short description of data set [3]: Cytotoxicity against African green monkey Vero cells assessed as cell viability at 100 uM by MTT assay relative to control. Format: cell-based. The settings on record: chlorocebus sabaeus, read-out: Activity.
In data set [4] the test system is Leishmania donovani. Put plainly: Antileishmanial activity against promastigote stage of Leishmania donovani MHOM/IN/80/Dd8 harboring luciferase reporter gene at 25 uM after 48 hrs by Steady-Glo luminescence assay relative to control. Format: functional. The settings on record: for inhibition at 25 µM: MHOM/IN/80/Dd8, 48 h.
For data set [5], the system named is Leishmania donovani. Kind of data set: Antileishmanial activity against promastigote stage of Leishmania donovani MHOM/IN/80/Dd8 harboring luciferase reporter gene at 50 uM after 48 hrs by Steady-Glo luminescence assay relative to control. The settings on record: for inhibition at 50 µM: MHOM/IN/80/Dd8, 48 h. Format: functional.
In data set [6] the test system is Leishmania donovani. Kind of data set: Antileishmanial activity against promastigote stage of Leishmania donovani MHOM/IN/80/Dd8 harboring luciferase reporter gene at 100 uM after 48 hrs by Steady-Glo luminescence assay relative to control. Format: functional. The settings on record: MHOM/IN/80/Dd8, 48 h.
Data set [7] relates to Leishmania donovani. Put plainly: Antileishmanial activity against Leishmania donovani MHOM/IN/80/Dd8 amastigotes harboring luciferase reporter gene infected in mouse J774 cells at 25 uM after 72 hrs by Steady-Glo luminescence assay relative to control. It is filed as functional. The settings on record: for inhibition at 25 µM: MHOM/IN/80/Dd8, J774, 72 h.
The subject of data set [8] is Leishmania donovani. Kind of data set: Antileishmanial activity against Leishmania donovani MHOM/IN/80/Dd8 amastigotes harboring luciferase reporter gene infected in mouse J774 cells at 50 uM after 72 hrs by Steady-Glo luminescence assay relative to control. The settings on record: MHOM/IN/80/Dd8, J774, 72 h. It is filed as functional.
Data set [9] concerns Leishmania donovani. Put plainly: Antileishmanial activity against Leishmania donovani MHOM/IN/80/Dd8 amastigotes harboring luciferase reporter gene infected in mouse J774 cells at 100 uM after 72 hrs by Steady-Glo luminescence assay relative to control. It is filed as functional. The settings on record: MHOM/IN/80/Dd8, J774, 72 h.
Data set [10] can be described thus: Stability in simulated gastric fluid at 10 ug/ml measured after 2 hrs by UPLC analysis relative to control. It is filed as ADME. Particulars: read-out: Stability.
A short description of data set [11]: Stability in simulated intestinal fluid at 10 ug/ml measured after 2 hrs by UPLC analysis relative to control. It is filed as ADME. The settings on record: read-out: Stability.
A short description of data set [12]: Stability in mouse plasma at 10 ug/ml measured after 2 hrs by UPLC analysis relative to control. It is filed as ADME, cell-free. The settings on record: read-out: Stability.
Data set [13] in a line: Stability in mouse liver microsomes assessed as compound remaining after 1 hr in presence of NADPH by UPLC analysis. It is filed as ADME, Microsome. Particulars: read-out: Stability.
Data set [14] is described as follows: Half life in mouse liver microsomes after 1 hr in presence of NADPH by UPLC analysis. Format: ADME, Microsome.
Data set [15] in a line: Intrinsic clearance in mouse liver microsomes after 1 hr in presence of NADPH by UPLC analysis. It is filed as ADME, Microsome.
The test system of data set [16] is Leishmania donovani. Kind of data set: Inhibition of ubiquinol cytochrome c reductase in Leishmania donovani promastigotes mitochondria at 2 uM using decylubiquinol as substrate in presence of cytochrome c relative to control.
Data set [17] relates to Leishmania donovani. Kind of data set: Inhibition of succinate-ubiquinone oxidoreductase in Leishmania donovani promastigotes mitochondria using succinate as substrate in presence fo DCPIP by photometry analysis relative to control. Particulars: concentration not given here.
Data set [18] is described as follows: Selectivity index, ratio of CC50 for mouse J774 cells to IC50 for antileishmanial activity against Leishmania donovani MHOM/IN/80/Dd8 amastigotes harboring luciferase reporter gene. Format: toxicity. The settings on record: read-out: Ratio CC50/IC50.
Data set [19] can be described thus: Selectivity index, ratio of CC50 for African green monkey Vero cells to IC50 for antileishmanial activity against Leishmania donovani MHOM/IN/80/Dd8 amastigotes harboring luciferase reporter gene. It is filed as toxicity. The settings on record: read-out: Ratio CC50/IC50.
Data set [20] concerns Leishmania donovani. Kind of data set: Induction of mitochondrial dysfunction in Leishmania donovani promastigotes assessed as reduction in mitochondrial membrane potential at 50 uM after 15 mins by JC-1 staining-based flow cytometric analysis (reference value: 7.73%). On the set-up: scale not given: the % may be the effect or the level left. Format: functional.

Molecules are shown by their SMILES. Activity calls are given as the source filed them. The rule behind the calls is not given here.

`CCOC(=O)C(C(=O)c1ccc(OC)cc1)C(NC(C)=O)c1cc(OC)ccc1Br` (stereo not drawn): in [1], the viability at 25 µM was 96.3%. Also, the viability at 50 µM in data set [2] is 93.3%. The viability at 100 µM in data set [3] amounted to 90.7%. In addition, the inhibition at 25 µM came out at 68% with Leishmania donovani [4] and 58.2% with Leishmania donovani [7]. The inhibition at 50 µM in the data set with Leishmania donovani [5] is 80.3%; with Leishmania donovani [8], 62.3%. The inhibition at 100 µM came out at 81.2% with Leishmania donovani [6] and 64.2% in the data set on Leishmania donovani [9]. Moreover, the remaining at 2 h, 10 ug/ml was 71.1% in data set [10], 69.6% in [11] and 6.97% in [12]. For the same molecule, the remaining at 1 h in data set [13] was 57.8%. In addition, in [14], the half-life is 1.55 h. Further, in data set [15], the CLH was 5 µL/min/mg.
For `CCCCCCC1C(=O)O[C@H](C)[C@H](NC(=O)c2cccc(NC=O)c2O)C(=O)O[C@@H](C)[C@@H]1OC(=O)CC(C)C` (stereo partly drawn), the inhibition with Leishmania donovani [16] was > 93%.
Take `CSc1ccc(C(=O)C(c2ccc(Cl)c(Cl)c2)C(NC(=O)c2ccc(C)cc2)c2cccc3ccccc23)cc1` (stereo not drawn): the viability at 25 µM in [1] was 90.5%. Further, the viability at 50 µM in [2] is 89.6%. Moreover, the viability at 100 µM in data set [3] worked out at 88.6%. For the same molecule, the inhibition result in the data set on Leishmania donovani [4] and in the data set on Leishmania donovani [5] was “inactive” in each case. The inhibition at 100 µM with Leishmania donovani [6] turned out to be 12.5%; with Leishmania donovani [9], 25.9%. The molecule further gave an inhibition at 25 µM in the data set on Leishmania donovani [7] of 14.3%. Moreover, the inhibition at 50 µM in the data set with Leishmania donovani [8] came out at 23.8%.
Take `CSc1ccc(C(=O)C(c2ccc(Cl)c(Cl)c2)C(NC(=O)c2ccc(C)cc2)c2cc3ccccc3s2)cc1` (stereo not drawn): the viability at 25 µM in [1] was 95.3%. The viability at 50 µM in data set [2] came out at 92.3%. Besides, in data set [3], the viability at 100 µM turned out to be 90.2%. The figures for the inhibition at 25 µM in the data set on Leishmania donovani [4] and with Leishmania donovani [7] were 20.1% and 9.2%, respectively. For the same molecule, the results for the inhibition at 50 µM with Leishmania donovani [5] and in the data set with Leishmania donovani [8] were 22.4% and 17.6%, respectively. The inhibition at 100 µM was found to be 24.2% in the data set with Leishmania donovani [6] and 21% in the data set with Leishmania donovani [9].
As to `CSc1ccc(C(=O)C(c2ccc(Cl)c(Cl)c2)C(NC(=O)c2ccccc2)c2cccc3ccccc23)cc1` (stereo not drawn), the viability at 25 µM in data set [1] turned out to be 98.2%. In data set [2], the viability at 50 µM came to 93.9%. For the same molecule, the viability at 100 µM in data set [3] was 89.2%. In addition, the values for the inhibition at 25 µM in the data set on Leishmania donovani [4] and in the data set on Leishmania donovani [7] were 33.4% and 43.1%, respectively. Besides, the inhibition at 50 µM in the data set with Leishmania donovani [5] is 42.1%; in the data set on Leishmania donovani [8] it was 69.4%. The inhibition at 100 µM in the data set with Leishmania donovani [6] was found to be 45.6%; in the data set on Leishmania donovani [9], 72.3%.
As for `O=C(CC(=O)C(F)(F)F)c1ccco1`, in the data set with Leishmania donovani [17], the inhibition was > 84%.
`CCCCCCCCCCCCCCCCOP(=O)([O-])OCC[N+](C)(C)C` [MILTEFOSINE]: the selectivity ratio in data set [18] amounted to 5.8; in [19] it was 5.3.
`N#CC(C#N)=NNc1cccc(Cl)c1` [CARBONYL CYANIDE M-CHLOROPHENYLHYDRAZONE]: the Activity in the data set with Leishmania donovani [20] was found to be 94.26%.
In the case of `CSc1ccc(C(=O)C(c2ccc(Cl)c(Cl)c2)C(NC(=O)c2cccc(C)c2)c2cccc3ccccc23)cc1` (stereo not drawn), in data set [1], the viability at 25 µM was found to be 95.8%. The viability at 50 µM in [2] was determined as 90.7%. Also, the viability at 100 µM in data set [3] is 87.6%. For the same molecule, the inhibition at 25 µM in the data set on Leishmania donovani [4] came to 27.2%; in the data set on Leishmania donovani [7], 5.9%. The inhibition at 50 µM with Leishmania donovani [5] was 36.4%; in the data set on Leishmania donovani [8] it was 14.5%. Besides, the inhibition at 100 µM stood at 36.9% in the data set on Leishmania donovani [6] and 19.3% with Leishmania donovani [9].
For the molecule `CSc1ccc(C(=O)C(c2ccc(Cl)c(Cl)c2)C(NC(C)=O)c2cccc3ccccc23)cc1` (stereo not drawn), in [1], the viability at 25 µM turned out to be 90.1%. In [2], the viability at 50 µM was determined as 89.3%. Also, the viability at 100 µM in data set [3] was 87.2%. For the same molecule, the inhibition at 25 µM in the data set on Leishmania donovani [4] was determined as 55.8%; in the data set with Leishmania donovani [7] it was 25%. For the same molecule, the inhibition at 50 µM in the data set with Leishmania donovani [5] stood at 74.3%; in the data set with Leishmania donovani [8], 31.5%. The inhibition at 100 µM in the data set with Leishmania donovani [6] was 78.6%; in the data set with Leishmania donovani [9] it was 36.4%.
Regarding `CSc1ccc(C(=O)/C(=C/c2cccnc2)c2ccc(Cl)c(Cl)c2)cc1`, the viability at 25 µM in [1] was found to be 95.7%. The viability at 50 µM in data set [2] amounted to 89.6%. The viability at 100 µM in data set [3] was 88.6%. Besides, the inhibition at 25 µM worked out at 46.7% in the data set on Leishmania donovani [4] and 34.3% in the data set on Leishmania donovani [7]. Also, the inhibition at 50 µM is 80.4% in the data set on Leishmania donovani [5] and 59.3% with Leishmania donovani [8]. Also, the inhibition at 100 µM was found to be 83.2% with Leishmania donovani [6] and 62.1% with Leishmania donovani [9].
For the molecule `CSc1ccc(C(=O)/C(=C/c2cc3ccccc3s2)c2ccc(Cl)c(Cl)c2)cc1`, in data set [1], the viability at 25 µM came out at 93.4%. Moreover, the viability at 50 µM in [2] amounted to 91.6%. Besides, the viability at 100 µM in [3] was found to be 87%. Moreover, in the data set on Leishmania donovani [4], the inhibition at 25 µM was 62.1%. Moreover, the values for the inhibition at 50 µM in the data set with Leishmania donovani [5] and in the data set with Leishmania donovani [8] were 70.3% and 2.6%, respectively. Further, the values for the inhibition at 100 µM with Leishmania donovani [6] and in the data set with Leishmania donovani [9] were 72.1% and 2.8%, respectively. For the same molecule, in the data set with Leishmania donovani [7], the inhibition result is “inactive”.
